Values after ≈ are worked out from the molar mass of the structure shown.
Experiments:
[1] = tested on: Mycobacterium tuberculosis; test: microbe, parasite or virus in culture; conditions: H37Rv, 168 h
Description: Antimycobacterial activity against Mycobacterium tuberculosis H37Rv after 7 days by resazurin reduction microplate assay

[2] = Thermodynamic solubility of the compound in 0.1N HCl at pH 1.5 after 24 hrs by HPLC method; format: physicochemical; conditions: read-out: Therm_solubility
[3] = Half life in human liver S9 fraction at 2 uM by HPLC-MS/MS analysis; format: ADME, tissue-based
[4] = Cytotoxicity against mouse N9 cells assessed as viability at 10 uM after 72 hrs by MTT assay relative to control; format: cell-based; conditions: read-out: Activity
[5] = Cytotoxicity against African green monkey Vero cells assessed as viability at 10 uM after 72 hrs by MTT assay relative to control; format: cell-based; conditions: chlorocebus sabaeus, read-out: Activity
[6] = Kinetic solubility in water at pH 5.8; format: physicochemical; conditions: read-out: Kinetic_solubility
[7] = Cytotoxicity against human HepG2 cells assessed as viability at 10 uM after 72 hrs by MTT assay relative to control; format: cell-based; conditions: read-out: Activity
[8] = tested on: Mycobacterium tuberculosis; test: microbe, parasite or virus in culture; conditions: CDCT-4 (1105/09), 168 h
Description: Antimycobacterial activity against Mycobacterium tuberculosis CDCT-4 (1105/09) clinical isolate after 7 days by resazurin reduction microplate assay

[9] = Intrinsic clearance in human liver S9 fraction at 2 uM by HPLC-MS/MS analysis; format: ADME, tissue-based
[10] = Cytotoxicity against human HaCaT cells assessed as viability at 10 uM after 72 hrs by MTT assay relative to control; format: cell-based; conditions: read-out: Activity
[11] = Kinetic solubility in PBS at pH 7.4; format: physicochemical; conditions: read-out: Kinetic_solubility
[12] = Cytotoxicity against mouse RAW264.7 cells assessed as viability at 10 uM after 72 hrs by MTT assay relative to control; format: cell-based; conditions: read-out: Activity
[13] = tested on: Mycobacterium tuberculosis; test: Bactericidal activity against Mycobacterium tuberculosis H37Rv infected in mouse RAW264.7 cells assessed as bacterial colony formation at 5 uM after 5 days (reference value: 4.1 to 4.73 log10CU); format: functional
[14] = tested on: Mycobacterium tuberculosis; test: microbe, parasite or virus in culture; conditions: PE-003, 168 h
Description: Antimycobacterial activity against Mycobacterium tuberculosis PE-003 clinical isolate after 7 days by resazurin reduction microplate assay

[15] = Thermodynamic solubility of the compound in acetate buffer at pH 4 after 24 hrs by HPLC method; format: physicochemical; conditions: read-out: Therm_solubility
[16] = Permeability of the compound at 1 uM […] by PAMPA; format: physicochemical; conditions: read-out: permeability
[17] = tested on: Mycobacterium tuberculosis; format: functional; conditions: H37Rv, 168 h
[18] = tested on: Mycobacterium tuberculosis; format: functional; conditions: H37Rv, 168 h; remark: listed apart in the source
[19] = tested on: Mycobacterium tuberculosis; format: functional; conditions: H37Rv, 168 h; remark: listed apart in the source
[20] = tested on: Mycobacterium tuberculosis; format: functional; conditions: H37Rv, 168 h; remark: listed apart in the source
[21] = tested on: Mycobacterium tuberculosis; format: functional; conditions: H37Rv, 168 h; remark: listed apart in the source
[22] = tested on: Mycobacterium tuberculosis; format: functional; conditions: H37Rv, 168 h; remark: listed apart in the source

## COc1ccccc1NC(=O)COc1cc(C)nc2ccc(Br)cc12
[1]
  MIC: 0.78 µM (≈ 0.313 µg/mL)

## CCOc1ccc2nc(C)cc(OCC(=O)Nc3ccccc3OC)c2c1
[1]
  MIC: 1.75 µM (≈ 0.641 µg/mL)

## COc1ccc2nc(C)cc(OCC(=O)Nc3ccc4c(c3)CCCC4)c2c1
[2]
  solubility thermodynamic at 24 h: 90 µM (≈ 33.9 µg/mL)
[3]
  half-life at 2 µM: 16.2 min
[4]
  viability at 72 h, 10 µM: 103%
[5]
  viability at 72 h, 10 µM: 94%
[6]
  solubility kinetic: 6.6 µM (≈ 2.48 µg/mL)
[7]
  viability at 72 h, 10 µM: 85%
[8]
  MIC: 0.11 µM (≈ 0.0414 µg/mL)
[9]
  CLhep predicted at 2 µM: 15.6 mL/min/kg
[10]
  viability at 72 h, 10 µM: 95%
[1]
  MIC: 0.05 µM (≈ 0.0188 µg/mL)
[11]
  solubility kinetic: 1.2 µM (≈ 0.452 µg/mL)
[12]
  viability at 72 h, 10 µM: 82%
[13]
  Activity: 3.33 log10CFU
[14]
  MIC: 0.008 µM (≈ 0.00301 µg/mL)
[15]
  solubility thermodynamic at 24 h: 30 µM (≈ 11.3 µg/mL)

## COc1ccc2nc(C)cc(OCC(=O)c3ccc4ccccc4c3)c2c1
[1]
  MIC: 1.75 µM (≈ 0.625 µg/mL)

## CCCCc1ccc(NC(=O)COc2cc(C)nc3ccc(OC)cc23)cc1
[2]
  solubility thermodynamic at 24 h: 240 µM (≈ 90.8 µg/mL)
[3]
  half-life at 2 µM: 13.7 min
[4]
  viability at 72 h, 10 µM: 107%
[5]
  viability at 72 h, 10 µM: 90%
[6]
  solubility kinetic: 2.2 µM (≈ 0.833 µg/mL)
[7]
  viability at 72 h, 10 µM: 78%
[8]
  MIC: < 0.05 µM
[9]
  CLhep predicted at 2 µM: 16.3 mL/min/kg
[10]
  viability at 72 h, 10 µM: 105%
[1]
  MIC: 0.1 µM (≈ 0.0378 µg/mL)
[11]
  solubility kinetic: 2.3 µM (≈ 0.87 µg/mL)
[12]
  viability at 72 h, 10 µM: 91%
[13]
  Activity: 3.05 log10CFU
[14]
  MIC: 0.008 µM (≈ 0.00303 µg/mL)
[15]
  solubility thermodynamic at 24 h: 50 µM (≈ 18.9 µg/mL)

## CCCc1cc(OCC(=O)Nc2ccccc2OC)c2cc(OC)ccc2n1
[1]
  MIC: > 26.3 µM

## COc1ccc2nc(C)cc(OCC(=O)N3CCCCC3)c2c1
[1]
  MIC: > 31.8 µM

## COc1ccc2nc(C)cc(OCC(=O)N[C@@H]3CCCc4ccccc43)c2c1
[1]
  MIC: 13.3 µM (≈ 5 µg/mL)

## COc1ccc2nc(C(C)C)cc(OCC(=O)Nc3ccccc3OC)c2c1
[1]
  MIC: > 26.3 µM

## COc1ccccc1NC(=O)COc1cc(C)nc2ccc(C(F)(F)F)cc12
[1]
  MIC: > 25.6 µM

## COc1ccc2nc(C)cc(OCC(=O)Nc3ccc(C)cc3)c2c1
[2]
  solubility thermodynamic at 24 h: 1200 µM (≈ 404 µg/mL)
[3]
  half-life at 2 µM: 25.4 min
[4]
  viability at 72 h, 10 µM: 106%
[5]
  viability at 72 h, 10 µM: 95%
[6]
  solubility kinetic: 17 µM (≈ 5.72 µg/mL)
[7]
  viability at 72 h, 10 µM: 80%
[8]
  MIC: 0.04 µM (≈ 0.0135 µg/mL)
[9]
  CLhep predicted at 2 µM: 13.5 mL/min/kg
[10]
  viability at 72 h, 10 µM: 100%
[1]
  MIC: 0.12 µM (≈ 0.0404 µg/mL)
[11]
  solubility kinetic: 17.9 µM (≈ 6.02 µg/mL)
[12]
  viability at 72 h, 10 µM: 92%
[13]
  Activity: 3.38 log10CFU
[16]
  Papp at 1 µM: 11.4 ×10⁻⁶ cm/s
[14]
  MIC: 0.04 µM (≈ 0.0135 µg/mL)
[15]
  solubility thermodynamic at 24 h: 2100 µM (≈ 706 µg/mL)

## COc1ccccc1NC(=O)COc1cc(C)nc2ccc(F)cc12
[1]
  MIC: 14.7 µM (≈ 5 µg/mL)

## COc1ccc2nc(C)cc(NCC(=O)Nc3ccc4ccccc4c3)c2c1
[1]
  MIC: 6.73 µM (≈ 2.5 µg/mL)

## CCCc1ccc(NC(=O)COc2cc(C)nc3ccc(OC)cc23)cc1
[2]
  solubility thermodynamic at 24 h: 260 µM (≈ 94.8 µg/mL)
[17]
  MIC: 20 ng/mL (≈ 0.0549 µM)
[3]
  half-life at 2 µM: 30.2 min
[4]
  viability at 72 h, 10 µM: 106%
[5]
  viability at 72 h, 10 µM: 87%
[18]
  MIC: 5 ng/mL (≈ 0.0137 µM)
[19]
  MIC: 5 ng/mL (≈ 0.0137 µM)
[20]
  MIC: 2.5 ng/mL (≈ 0.00686 µM)
[6]
  solubility kinetic: 3.9 µM (≈ 1.42 µg/mL)
[21]
  MIC: 2.5 ng/mL (≈ 0.00686 µM)
[7]
  viability at 72 h, 10 µM: 64%
[8]
  MIC: < 0.05 µM
[9]
  CLhep predicted at 2 µM: 12.7 mL/min/kg
[10]
  viability at 72 h, 10 µM: 86%
[22]
  MIC: 2.5 ng/mL (≈ 0.00686 µM)
[1]
  MIC: 0.005 to 0.05 µM (≈ 0.00182 to 0.0182 µg/mL)
[11]
  solubility kinetic: 2.4 µM (≈ 0.875 µg/mL)
[12]
  viability at 72 h, 10 µM: 83%
[13]
  Activity: 2.76 log10CFU
[16]
  Papp at 1 µM: 1.3 ×10⁻⁶ cm/s
[14]
  MIC: 0.005 µM (≈ 0.00182 µg/mL)
[15]
  solubility thermodynamic at 24 h: 90 µM (≈ 32.8 µg/mL)

## COc1ccc2nc(C)cc(NCC(=O)Nc3ccccc3OC)c2c1
[1]
  MIC: > 28.5 µM

## COc1ccc2nc(C)cc(OCC(=O)N(C)c3ccccc3OC)c2c1
[1]
  MIC: > 27.3 µM
